Laboratory results: patent US20010031760A1, “Method of treating a patient having precancerous lesions with quinazoline derivatives” (priority 1995, published 2001)
Counter-ions that a name gives are not always drawn.

melting point	Compound
282 to 284 °C	COc1cc2nc(N3CCN(C(=O)C4CCCC4)CC3)nc(NN)c2cc1OC.Cl
274 to 277 °C (dec.)	COc1cc2nc(N3CCN(C(=O)c4cscn4)CC3)nc(N)c2cc1OC.Cl
271 to 273 °C (dec.)	COc1cc2nc(N3CCN(C(=O)c4cc(C)on4)CC3)nc(N)c2cc1OC.Cl
234 to 236 °C	COc1cc2nc(N3CCN(C(=O)C4CC=CCC4)CC3)nc(N)c2cc1OC (stereo not drawn) [Example 132, 4-Amino-2-[4-(3-cyclohexenylcarbonyl)-1-piperazinyl]-6,7-dimethoxyquinazoline]
273 to 276 °C (dec.)	COc1cc2nc(N3CCN(C(=O)c4nccs4)CC3)nc(N)c2cc1OC.Cl
263 to 264 °C (dec.)	COc1cc2nc(N3CCN(C(=O)c4cc(C)no4)CC3)nc(N)c2cc1OC.Cl
283.5 to 288 °C (dec.)	COc1cc2nc(N3CCN(C(=O)c4ocnc4C)CC3)nc(N)c2cc1OC.Cl
270 °C (dec.)	COc1cc2nc(N3CCN(C(=O)c4csnn4)CC3)nc(N)c2cc1OC.Cl
291 to 294 °C (dec.)	COc1cc2nc(N3CCN(C(=O)c4cocn4)CC3)nc(N)c2cc1OC.Cl
260 to 263 °C (dec.)	COc1cc2nc(N3CCN(C(=O)c4csc(C)n4)CC3)nc(N)c2cc1OC.Cl
295 to 297 °C	COc1cc2nc(N3CCN(C(=O)c4cnns4)CC3)nc(N)c2cc1OC.Cl
286 to 287 °C (dec.)	COc1cc2nc(N3CCN(C(=O)c4cnsc4)CC3)nc(N)c2cc1OC.Cl
268 to 273 °C (dec.)	COc1cc2nc(N3CCN(C(=O)c4ccon4)CC3)nc(N)c2cc1OC.Cl
278 to 280 °C (dec.)	COc1cc2nc(N3CCN(C(=O)c4coc(C)n4)CC3)nc(N)c2cc1OC.Cl
225 to 260 °C (dec.)	COc1cc2nc(N3CCN(C(=O)c4cnoc4)CC3)nc(N)c2cc1OC.Cl
279 to 280 °C (dec.)	COc1cc2nc(N3CCN(C(=O)C4CCCC4)CC3)nc(N)c2cc1OC (as salt: hydrochloride) [Example 127, 4-Amino-2-[4-(cyclopentylcarbonyl)-1-piperazinyl]-6,7-dimethoxyquinazoline]
280 to 281 °C (dec.)	COc1cc2nc(N3CCN(C(=O)c4cncs4)CC3)nc(N)c2cc1OC.Cl
300 to 301 °C (dec.)	COc1cc2nc(N3CCN(C(=O)c4conc4C)CC3)nc(N)c2cc1OC.Cl
